Experiment [1] deals with T1, Sodium-dependent dopamine transporter (Homo sapiens, UniProt Q01959). Description: Ratio of uptake inhibition to binding affinity to human DAT (IC50/Ki).
Experiment [2] deals with T1, Sodium-dependent dopamine transporter. Kind of experiment: Compound was tested for inhibition of [3H]DA binding to dopamine (DAT) transporter in HEK cells. The format is cell-based, HEK293.
For experiment [3], the target named is T2, Sodium-dependent noradrenaline transporter (Homo sapiens, UniProt P23975). Kind of experiment: Compound was tested for inhibition of [125I]-RTI-55 binding to norepinephrine transporter HEK cells. It is filed as cell-based, HEK293.
The target in experiment [4] is T2, Sodium-dependent noradrenaline transporter. Kind of experiment: Ratio of uptake inhibition to binding affinity to human NET (IC50/Ki).
Experiment [5] shares this target. Kind of experiment: Compound was tested for inhibition of [3H]NE binding to norepinephrine transporter HEK cells. It is filed as cell-based, HEK293.
Experiment [6] deals with T3, Sodium-dependent serotonin transporter (Homo sapiens, UniProt P31645). Kind of experiment: Compound was tested for inhibition of [125I]RTI-55 binding to Serotonin transporter in HEK cells. The format is cell-based, HEK293.
Target sequence in this assay (P31645 whole entry): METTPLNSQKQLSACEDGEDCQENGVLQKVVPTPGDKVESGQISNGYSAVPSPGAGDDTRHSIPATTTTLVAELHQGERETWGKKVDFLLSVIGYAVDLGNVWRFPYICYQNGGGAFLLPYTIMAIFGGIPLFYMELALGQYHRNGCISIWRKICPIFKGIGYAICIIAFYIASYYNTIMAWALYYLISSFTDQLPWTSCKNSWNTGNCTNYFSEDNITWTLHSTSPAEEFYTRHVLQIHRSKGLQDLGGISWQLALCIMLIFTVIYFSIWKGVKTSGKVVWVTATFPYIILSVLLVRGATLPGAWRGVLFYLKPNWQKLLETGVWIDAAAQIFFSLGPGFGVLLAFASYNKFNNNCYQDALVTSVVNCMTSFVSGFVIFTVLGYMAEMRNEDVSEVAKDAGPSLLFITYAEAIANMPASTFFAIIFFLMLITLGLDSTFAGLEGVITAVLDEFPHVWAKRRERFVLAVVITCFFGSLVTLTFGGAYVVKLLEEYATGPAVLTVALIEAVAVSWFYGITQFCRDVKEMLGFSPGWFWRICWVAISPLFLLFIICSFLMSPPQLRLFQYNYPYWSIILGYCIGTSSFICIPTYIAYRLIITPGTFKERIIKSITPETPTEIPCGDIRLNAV
Experiment [7] concerns the target T3, Sodium-dependent serotonin transporter. Description: Ratio of uptake inhibition to binding affinity to human SERT (IC50/Ki).
Target sequence in this assay (P31645 whole entry, looked up): as the sequence (P31645 whole entry) above
Experiment [8] shares this target. Description: Compound was tested for inhibition of [3H]5-HT binding to Serotonin transporter in HEK cells. It is filed as cell-based, HEK293.
Target sequence in this assay (P31645 whole entry): as above
Experiment [9] has as its target T1, Sodium-dependent dopamine transporter. Kind of experiment: Compound was tested for inhibition of [125I]RTI-55 binding to dopamine transporter in HEK cells. The format is cell-based, HEK293.

Structures are written as SMILES. pIC50, pKi: −log10 of the molar value.

T1 sequence (Q01959 whole entry): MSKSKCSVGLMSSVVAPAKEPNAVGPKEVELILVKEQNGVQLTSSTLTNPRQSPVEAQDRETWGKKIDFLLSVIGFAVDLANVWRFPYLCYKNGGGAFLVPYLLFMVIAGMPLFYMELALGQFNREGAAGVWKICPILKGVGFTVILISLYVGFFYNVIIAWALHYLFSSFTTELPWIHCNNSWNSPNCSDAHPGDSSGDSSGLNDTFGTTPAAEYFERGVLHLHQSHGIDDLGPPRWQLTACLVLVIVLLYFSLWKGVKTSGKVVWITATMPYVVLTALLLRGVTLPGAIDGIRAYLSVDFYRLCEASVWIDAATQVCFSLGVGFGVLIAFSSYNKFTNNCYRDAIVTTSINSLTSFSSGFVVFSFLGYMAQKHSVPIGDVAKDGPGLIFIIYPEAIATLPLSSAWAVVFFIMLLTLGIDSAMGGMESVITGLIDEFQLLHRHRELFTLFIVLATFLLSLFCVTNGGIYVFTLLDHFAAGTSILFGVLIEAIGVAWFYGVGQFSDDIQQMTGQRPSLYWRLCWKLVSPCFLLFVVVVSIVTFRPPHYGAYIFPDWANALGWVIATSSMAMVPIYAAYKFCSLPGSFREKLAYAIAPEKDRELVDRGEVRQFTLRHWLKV
T2 sequence (P23975 whole entry): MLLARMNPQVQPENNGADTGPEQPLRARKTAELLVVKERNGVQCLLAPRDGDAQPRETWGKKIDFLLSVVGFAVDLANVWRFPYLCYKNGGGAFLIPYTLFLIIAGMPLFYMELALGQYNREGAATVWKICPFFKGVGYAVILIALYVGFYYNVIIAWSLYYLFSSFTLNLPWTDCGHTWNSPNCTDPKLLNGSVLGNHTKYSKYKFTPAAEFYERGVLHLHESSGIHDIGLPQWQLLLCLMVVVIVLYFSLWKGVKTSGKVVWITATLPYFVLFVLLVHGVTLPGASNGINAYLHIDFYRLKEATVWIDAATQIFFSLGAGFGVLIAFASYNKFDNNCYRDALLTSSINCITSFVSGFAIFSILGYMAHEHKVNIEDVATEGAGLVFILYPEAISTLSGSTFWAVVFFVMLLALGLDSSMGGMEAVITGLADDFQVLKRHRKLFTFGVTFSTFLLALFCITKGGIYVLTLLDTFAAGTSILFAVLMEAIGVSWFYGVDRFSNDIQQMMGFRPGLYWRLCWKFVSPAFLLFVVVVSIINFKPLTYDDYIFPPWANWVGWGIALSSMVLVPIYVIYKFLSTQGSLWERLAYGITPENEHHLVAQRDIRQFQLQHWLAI

As a reminder, the pIC50 is the IC50 on a negative log10 scale, so that one unit is a factor of ten. The low end stands for a high IC50, the high end for a low IC50. For orientation: pKi means the Ki on a negative log10 scale, so that one unit is a factor of ten. Read a high pKi as a low Ki. For `CN1C2CCC1C(C(=O)NCCCCCCNC(=O)C1C(c3ccc(Cl)cc3)CC3CCC1N3C)C(c1ccc(Cl)cc1)C2` (configuration not stated), the Ratio in experiment [1] is 76.3; in [4], 5.59; in [7], 2.2. Besides, the pIC50 in experiment [2] was 5.85; in experiment [5], 5.73; in experiment [8], 6.65. For the same compound, the results for the pKi in [3], in [6] and in experiment [9] were 6.48, 6.99 and 7.74, respectively.

As for `CN1C2CCC1C(C(=O)NCCCNC(=O)C1C(c3ccc(Cl)cc3)CC3CCC1N3C)C(c1ccc(Cl)cc1)C2` (configuration not stated), the Ratio in experiment [1] amounted to 0.8; in [4] it was 0.09; in [7] it was 1.17. In addition, the figures for the pIC50 in experiment [2], in [5] and in [8] were 7.28, 6.58 and 6.36, respectively. The pKi in experiment [3] was 5.53; in experiment [6] it was 6.45; in [9], 7.19.

With `CN1C2CCC1C(C(=O)NCCCCCCCCNC(=O)C1C(c3ccc(Cl)cc3)CC3CCC1N3C)C(c1ccc(Cl)cc1)C2` (configuration not stated), the Ratio is 130 in experiment [1] and 12.5 in experiment [7]. For the same compound, the values for the pIC50 in experiment [2], in experiment [5] and in experiment [8] were 6.06, 6.31 and 7.00, respectively. Moreover, the results for the pKi in experiment [3], in [6] and in experiment [9] were 6.08, 8.10 and 8.17, respectively.

With `CN1C2CCC1C(C(=O)NCCCCNC(=O)C1C(c3ccc(Cl)cc3)CC3CCC1N3C)C(c1ccc(Cl)cc1)C2` (configuration not stated), the Ratio amounted to 76.8 in experiment [1], 1.09 in experiment [4] and 0.06 in experiment [7]. Besides, the pIC50 in [2] is 5.78; in experiment [5], 5.65; in experiment [8] it was 6.75. In addition, the pKi in experiment [3] was 5.68; in experiment [6], 5.50; in [9], 7.66.

For `COC(=O)C1C(c2ccc(Cl)cc2)CC2CCC1N2C` (configuration not stated), the pIC50 in experiment [2] was 8.77. This compound also gave a pKi in experiment [9] of 8.96.

Values taken from ChEMBL document CHEMBL1136813, “Bivalent biogenic amine reuptake inhibitors” (Bioorg Med Chem Lett, 2003).
